Two compounds from patent US20050282743A1, “Molecular interactions in cells” (Arbor Vita Corporation, priority 2001, published 2005) can be followed below.

Holding throughout (format): binding
Assay [1] has as its target T1, PDZ protein (GST-PDZ fusion) (Homo sapiens, UniProt Q12923).
T1 construct: made in house; host or cells: E. coli (DH5alpha, BL21 or JM109)
Kind of assay: G' assay (10 uM PL peptide), results of TABLE 7 and TABLE 12. Conditions: PDZ PTPL-1, PDZ Domain 2. In outline: (§1)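 Biotinylated PL peptides at 10 uM (vs 20 uM in G^0 assay) bound to GST-PDZ fusions; PDZ protein at 5 ug/ml unless another concentration listed. Bound peptide read as A450 nm, classified 0–5 (0 = A450 0; 5 = A450 >4 repeated).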

In assay [2] the target is T2, PDZ protein (GST-PDZ fusion) (Homo sapiens, UniProt Q5TCQ9).
T2 construct: made in house; host or cells: E. coli (DH5alpha, BL21 or JM109)
T2 sequence (Q5TCQ9 1-1481): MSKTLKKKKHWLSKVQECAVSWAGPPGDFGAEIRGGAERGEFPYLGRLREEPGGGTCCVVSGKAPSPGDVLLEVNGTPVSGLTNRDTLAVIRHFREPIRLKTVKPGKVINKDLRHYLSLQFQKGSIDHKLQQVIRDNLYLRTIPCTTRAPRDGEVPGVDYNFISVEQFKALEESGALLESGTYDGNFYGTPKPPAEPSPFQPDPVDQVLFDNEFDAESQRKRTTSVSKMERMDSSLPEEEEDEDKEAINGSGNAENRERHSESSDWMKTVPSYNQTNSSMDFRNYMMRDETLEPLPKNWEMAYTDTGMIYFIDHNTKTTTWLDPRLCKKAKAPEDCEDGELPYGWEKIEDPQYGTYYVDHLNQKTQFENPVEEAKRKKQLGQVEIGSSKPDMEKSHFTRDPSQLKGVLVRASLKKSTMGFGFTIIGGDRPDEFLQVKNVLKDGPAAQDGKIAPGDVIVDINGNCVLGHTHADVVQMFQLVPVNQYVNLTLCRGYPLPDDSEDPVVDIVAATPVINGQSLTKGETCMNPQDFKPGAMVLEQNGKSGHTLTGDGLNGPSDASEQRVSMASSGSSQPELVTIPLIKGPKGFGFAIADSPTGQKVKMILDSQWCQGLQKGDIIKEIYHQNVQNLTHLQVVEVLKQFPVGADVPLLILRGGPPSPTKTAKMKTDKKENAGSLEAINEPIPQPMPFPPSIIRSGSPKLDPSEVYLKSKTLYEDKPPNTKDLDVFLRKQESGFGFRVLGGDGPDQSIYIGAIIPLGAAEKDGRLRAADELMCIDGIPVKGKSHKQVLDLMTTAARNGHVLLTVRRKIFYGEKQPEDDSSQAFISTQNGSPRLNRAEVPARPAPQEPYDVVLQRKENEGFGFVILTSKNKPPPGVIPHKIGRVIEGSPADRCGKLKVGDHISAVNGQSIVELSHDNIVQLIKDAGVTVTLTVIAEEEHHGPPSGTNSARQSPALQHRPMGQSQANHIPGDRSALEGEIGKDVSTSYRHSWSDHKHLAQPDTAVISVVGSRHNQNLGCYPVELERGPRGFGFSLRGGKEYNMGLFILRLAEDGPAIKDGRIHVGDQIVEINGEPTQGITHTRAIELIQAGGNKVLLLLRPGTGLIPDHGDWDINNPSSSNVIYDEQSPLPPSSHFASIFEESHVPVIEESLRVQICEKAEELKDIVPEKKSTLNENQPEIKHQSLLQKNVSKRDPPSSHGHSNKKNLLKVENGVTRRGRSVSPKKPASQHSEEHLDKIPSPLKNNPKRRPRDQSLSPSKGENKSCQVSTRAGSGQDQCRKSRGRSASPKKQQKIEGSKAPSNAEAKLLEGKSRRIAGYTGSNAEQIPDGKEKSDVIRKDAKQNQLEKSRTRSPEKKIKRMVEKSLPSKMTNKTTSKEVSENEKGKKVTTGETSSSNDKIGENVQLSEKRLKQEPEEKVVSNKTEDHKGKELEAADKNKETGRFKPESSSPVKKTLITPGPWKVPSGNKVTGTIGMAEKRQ
The assay is described as above. Particulars: PDZ KIAA1634, PDZ Domain 2. Put shortly: as §1

The target in assay [3] is T3, PDZ-domain polypeptide (GST/PDZ fusion protein) (Homo sapiens, UniProt Q12923).
T3 construct: made in house; host or cells: E. coli (DH5alpha, BL21 or JM109)
T3 sequence (Q12923 whole entry, the tested form may be a part): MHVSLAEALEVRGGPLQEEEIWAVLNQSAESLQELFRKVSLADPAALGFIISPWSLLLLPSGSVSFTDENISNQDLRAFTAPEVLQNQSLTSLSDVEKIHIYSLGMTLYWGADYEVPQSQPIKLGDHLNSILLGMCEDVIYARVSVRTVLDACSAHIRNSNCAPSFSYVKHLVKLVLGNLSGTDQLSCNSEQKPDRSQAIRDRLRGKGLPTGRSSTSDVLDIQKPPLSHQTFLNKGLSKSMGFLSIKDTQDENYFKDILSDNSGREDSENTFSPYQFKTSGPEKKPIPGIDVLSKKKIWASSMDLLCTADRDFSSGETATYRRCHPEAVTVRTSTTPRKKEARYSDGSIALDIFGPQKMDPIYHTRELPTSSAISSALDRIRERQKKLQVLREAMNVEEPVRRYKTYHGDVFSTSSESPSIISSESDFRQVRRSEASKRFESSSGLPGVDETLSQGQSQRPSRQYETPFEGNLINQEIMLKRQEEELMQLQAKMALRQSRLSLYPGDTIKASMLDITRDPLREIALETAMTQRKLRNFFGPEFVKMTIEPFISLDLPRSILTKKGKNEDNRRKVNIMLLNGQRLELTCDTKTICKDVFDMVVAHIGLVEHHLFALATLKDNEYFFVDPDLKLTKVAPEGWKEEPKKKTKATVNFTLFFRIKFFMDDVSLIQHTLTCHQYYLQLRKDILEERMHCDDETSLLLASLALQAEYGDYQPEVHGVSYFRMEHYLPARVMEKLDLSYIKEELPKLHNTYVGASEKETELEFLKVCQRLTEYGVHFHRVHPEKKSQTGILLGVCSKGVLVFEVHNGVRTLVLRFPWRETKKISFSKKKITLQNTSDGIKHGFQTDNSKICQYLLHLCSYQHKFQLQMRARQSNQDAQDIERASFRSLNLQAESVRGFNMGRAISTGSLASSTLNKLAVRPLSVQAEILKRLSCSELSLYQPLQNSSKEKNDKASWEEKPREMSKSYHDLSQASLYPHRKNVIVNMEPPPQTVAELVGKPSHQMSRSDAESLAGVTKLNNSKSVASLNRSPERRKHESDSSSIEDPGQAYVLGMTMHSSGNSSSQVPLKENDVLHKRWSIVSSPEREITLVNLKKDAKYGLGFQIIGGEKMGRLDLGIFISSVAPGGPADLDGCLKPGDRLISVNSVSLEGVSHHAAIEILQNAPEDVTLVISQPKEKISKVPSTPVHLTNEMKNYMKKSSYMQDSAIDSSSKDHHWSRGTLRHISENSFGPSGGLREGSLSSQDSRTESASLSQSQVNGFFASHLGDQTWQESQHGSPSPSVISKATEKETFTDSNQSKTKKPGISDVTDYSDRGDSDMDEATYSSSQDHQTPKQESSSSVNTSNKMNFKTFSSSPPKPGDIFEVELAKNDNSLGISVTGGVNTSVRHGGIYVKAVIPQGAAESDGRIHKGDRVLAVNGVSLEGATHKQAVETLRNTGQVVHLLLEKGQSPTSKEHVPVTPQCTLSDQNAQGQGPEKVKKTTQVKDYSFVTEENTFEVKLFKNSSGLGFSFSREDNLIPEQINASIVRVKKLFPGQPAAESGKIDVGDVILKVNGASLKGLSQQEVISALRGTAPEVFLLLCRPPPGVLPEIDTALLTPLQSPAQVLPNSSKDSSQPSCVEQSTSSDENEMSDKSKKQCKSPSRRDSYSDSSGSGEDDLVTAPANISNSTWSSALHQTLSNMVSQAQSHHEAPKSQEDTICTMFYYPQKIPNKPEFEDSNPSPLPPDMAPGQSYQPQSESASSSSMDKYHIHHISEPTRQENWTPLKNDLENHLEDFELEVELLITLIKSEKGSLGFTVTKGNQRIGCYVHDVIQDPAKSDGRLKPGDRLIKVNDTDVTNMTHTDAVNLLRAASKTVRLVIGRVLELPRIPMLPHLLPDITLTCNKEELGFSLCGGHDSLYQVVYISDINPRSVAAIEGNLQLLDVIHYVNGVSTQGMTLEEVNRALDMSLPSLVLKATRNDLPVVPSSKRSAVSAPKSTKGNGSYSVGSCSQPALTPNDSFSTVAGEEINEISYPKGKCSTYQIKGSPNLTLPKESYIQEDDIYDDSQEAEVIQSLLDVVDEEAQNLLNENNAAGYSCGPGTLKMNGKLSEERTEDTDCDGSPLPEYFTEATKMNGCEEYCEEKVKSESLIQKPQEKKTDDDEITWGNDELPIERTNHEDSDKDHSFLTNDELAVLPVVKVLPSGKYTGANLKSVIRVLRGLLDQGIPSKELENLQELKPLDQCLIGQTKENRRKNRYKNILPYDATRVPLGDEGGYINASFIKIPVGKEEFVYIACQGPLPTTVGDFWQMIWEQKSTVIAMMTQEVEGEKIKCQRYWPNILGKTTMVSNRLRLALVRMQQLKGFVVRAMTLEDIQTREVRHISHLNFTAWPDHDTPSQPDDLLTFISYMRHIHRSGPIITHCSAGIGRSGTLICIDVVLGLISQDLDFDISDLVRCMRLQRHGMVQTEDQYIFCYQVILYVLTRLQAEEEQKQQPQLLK
Description: Apparent affinity (Kd) by titration of PL peptide in the G assay. Particulars: PDZ PTPL-1, PDZ Domain 2; read-out: Peptide Optimal Conc (non-zero value: Kd by titration of the PL peptide). As for the experimental part:
(§2) The third column labeled “Peptide Optimal Concentration” in the tables is a number reflective of the binding interaction between the PL protein and PDZ protein. […] The column labeled “Protein Optimal Concentration” refers to the protein concentration used to assay PL interaction (in ug/ml); a ‘0’ is indicative of 5 ug/ml protein concentration; any other value represents the concentration (in ug/ml) used to determine the dissociation constant for a given interaction.
(§3) The “A” and “G” assays described supra can be used to determine the “apparent affinity” of binding of a PDZ ligand peptide to a PDZ-domain polypeptide. Apparent affinity is determined based on the concentration of one molecule required to saturate the binding of a second molecule (e.g., the binding of a ligand to a receptor). Two particularly useful approaches for quantitation of apparent affinity of PDZ-ligand binding are provided infra.
(§4) In cases where satisfying the above criteria proves difficult, an alternative approach (infra) can be used.
(§5) (1) A fixed concentration of a PDZ-domain polypeptide and increasing concentrations of a labeled PL peptide (labeled with, for example, biotin or fluorescein, see TABLE 9 for representative peptide amino acid sequences) are mixed together in solution and allowed to react. In certain assays, peptide concentrations are 0.1 uM, 1 uM, 10 uM, 100 uM, 1 mM. In other assays, appropriate reaction times can range from 10 minutes to 2 days at temperatures ranging from 4° C. to 37° C. In some instances, the identical reaction can also be carried out using a non-PDZ domain-containing protein as a control (e.g., if the PDZ-domain polypeptide is fusion protein, the fusion partner can be used).
(§6) (2) PDZ-ligand complexes can be separated from unbound labeled peptide using a variety of methods known in the art.
(§7) (3) The PDZ-ligand complex is detected based on presence of the label on the peptide ligand using a variety of methods and detectors known to one of skill in the art. For example, if the label is fluorescein and the separation is achieved using HPSEC, an in-line fluorescence detector can be used. The binding can also be detected as described supra for the G assay.

Assay [4] addresses T4, PDZ-domain polypeptide (GST/PDZ fusion protein) (Homo sapiens, UniProt Q5TCQ9).
T4 construct: made in house; host or cells: E. coli (DH5alpha, BL21 or JM109)
T4 sequence (Q5TCQ9 1-1481): T2 sequence (Q5TCQ9 1-1481)
The assay is described as above. Conditions: PDZ KIAA1634, PDZ Domain 2; read-out: Peptide Optimal Conc (non-zero value: Kd by titration of the PL peptide). As for the experimental part: as §2, §3, §4, §5, §6, §7

Assay [5] deals with T5, PDZ protein (GST-PDZ fusion) (Homo sapiens, UniProt O14908).
T5 construct: made in house; host or cells: E. coli (DH5alpha, BL21 or JM109)
T5 sequence (O14908 1-333): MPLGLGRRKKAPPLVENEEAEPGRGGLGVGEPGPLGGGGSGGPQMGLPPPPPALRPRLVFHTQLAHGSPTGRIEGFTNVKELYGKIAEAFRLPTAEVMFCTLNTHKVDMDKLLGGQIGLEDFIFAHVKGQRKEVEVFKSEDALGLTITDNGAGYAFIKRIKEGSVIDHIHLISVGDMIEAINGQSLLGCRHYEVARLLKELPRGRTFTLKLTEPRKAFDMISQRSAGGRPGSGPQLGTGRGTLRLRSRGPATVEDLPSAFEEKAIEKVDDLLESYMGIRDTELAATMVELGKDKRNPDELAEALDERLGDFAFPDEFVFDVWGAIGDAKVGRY
Kind of assay: G' assay (10 uM PL peptide), results of TABLE 7 and TABLE 12. Conditions: PDZ TAX IP2, PDZ Domain 1. Put shortly: as §1

For assay [6], the target named is T6, PDZ protein (GST-PDZ fusion) (Homo sapiens, UniProt Q6P0Q8).
T6 construct: made in house; host or cells: E. coli (DH5alpha, BL21 or JM109)
T6 sequence (Q6P0Q8 whole entry, the tested form may be a part): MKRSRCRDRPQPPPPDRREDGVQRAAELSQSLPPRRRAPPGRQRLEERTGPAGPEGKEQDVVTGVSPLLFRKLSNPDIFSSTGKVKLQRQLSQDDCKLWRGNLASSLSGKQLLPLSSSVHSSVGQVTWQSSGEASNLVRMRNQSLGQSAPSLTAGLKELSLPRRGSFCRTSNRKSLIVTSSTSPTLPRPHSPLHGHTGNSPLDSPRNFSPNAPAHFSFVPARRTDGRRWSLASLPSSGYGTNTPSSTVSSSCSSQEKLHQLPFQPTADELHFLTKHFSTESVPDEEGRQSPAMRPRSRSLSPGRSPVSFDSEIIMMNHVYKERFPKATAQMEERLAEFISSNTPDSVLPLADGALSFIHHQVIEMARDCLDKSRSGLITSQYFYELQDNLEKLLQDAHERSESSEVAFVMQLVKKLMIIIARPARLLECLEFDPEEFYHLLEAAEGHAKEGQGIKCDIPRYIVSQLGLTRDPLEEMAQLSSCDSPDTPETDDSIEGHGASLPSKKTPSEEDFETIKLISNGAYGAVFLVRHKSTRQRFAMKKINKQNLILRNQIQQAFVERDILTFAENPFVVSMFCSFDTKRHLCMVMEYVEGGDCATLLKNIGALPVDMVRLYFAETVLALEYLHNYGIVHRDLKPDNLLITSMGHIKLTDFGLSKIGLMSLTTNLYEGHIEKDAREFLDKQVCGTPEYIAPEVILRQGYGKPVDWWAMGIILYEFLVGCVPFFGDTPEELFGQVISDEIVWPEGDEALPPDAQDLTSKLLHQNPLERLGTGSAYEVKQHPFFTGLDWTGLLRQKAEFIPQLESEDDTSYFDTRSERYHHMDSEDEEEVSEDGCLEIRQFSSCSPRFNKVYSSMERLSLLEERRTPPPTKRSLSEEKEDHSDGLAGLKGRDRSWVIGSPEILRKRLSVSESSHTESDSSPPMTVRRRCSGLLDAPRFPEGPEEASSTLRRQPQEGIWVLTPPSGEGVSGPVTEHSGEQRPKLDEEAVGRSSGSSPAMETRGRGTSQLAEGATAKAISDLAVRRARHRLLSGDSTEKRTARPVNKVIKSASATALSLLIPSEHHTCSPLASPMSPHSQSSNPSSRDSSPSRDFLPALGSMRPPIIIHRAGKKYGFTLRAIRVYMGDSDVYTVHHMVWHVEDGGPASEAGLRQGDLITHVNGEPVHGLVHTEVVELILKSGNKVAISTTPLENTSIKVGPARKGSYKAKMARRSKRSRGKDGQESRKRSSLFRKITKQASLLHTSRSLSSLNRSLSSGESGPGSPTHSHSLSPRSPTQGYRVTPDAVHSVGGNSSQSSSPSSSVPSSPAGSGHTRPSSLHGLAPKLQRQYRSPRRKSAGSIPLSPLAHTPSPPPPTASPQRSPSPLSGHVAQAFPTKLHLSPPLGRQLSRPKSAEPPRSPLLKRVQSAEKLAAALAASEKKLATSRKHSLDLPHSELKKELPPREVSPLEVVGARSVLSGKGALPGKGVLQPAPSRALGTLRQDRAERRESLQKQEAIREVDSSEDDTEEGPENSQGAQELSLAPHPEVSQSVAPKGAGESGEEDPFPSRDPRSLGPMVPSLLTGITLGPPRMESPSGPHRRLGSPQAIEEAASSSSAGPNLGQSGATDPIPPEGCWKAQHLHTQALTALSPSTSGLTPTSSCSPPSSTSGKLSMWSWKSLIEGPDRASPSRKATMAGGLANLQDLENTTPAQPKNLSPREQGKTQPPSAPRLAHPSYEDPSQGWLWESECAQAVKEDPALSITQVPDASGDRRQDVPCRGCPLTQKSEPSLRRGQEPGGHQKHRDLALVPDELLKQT
Described as above. Put shortly:
as §1

For assay [7], the target named is PDZ-domain polypeptide (GST/PDZ fusion protein). Description: Apparent affinity (Kd) by titration of PL peptide in the G assay. Conditions: PDZ TAX IP2, PDZ Domain 1; read-out: Peptide Optimal Conc (Kd by titration of the PL peptide). As for the experimental part:
as §2, §3, §4, §5, §6, §7

Ends that are not written are not given here. Peptide text beside a SMILES is read from it. * marks the point of attachment. Biotin = O=C1N[C@H]2[C@H](CS[C@H]2CCCCC(=O)*)N1

T1 sequence (Q12923 whole entry, the tested form may be a part): as the sequence (Q12923 whole entry, the tested form may be a part) above

With `CC[C@H](C)[C@H](NC(=O)CCCC[C@@H]1SC[C@@H]2NC(=O)N[C@@H]21)C(=O)N[C@H](C(=O)N[C@H](C(=O)N[C@H](C(=O)N[C@H](C(=O)N[C@H](C(=O)N[C@@H](CCSC)C(=O)N[C@H](C(=O)N[C@H](C(=O)N[C@@H](CC(N)=O)C(=O)N[C@H](C(=O)N[C@@H](CC(=O)O)C(=O)N[C@@H](Cc1ccccc1)C(=O)N1CCC[C@H]1C(=O)N1CCC[C@H]1C(=O)N[C@@H](CCCCN)C(=O)N[C@@H](CCC(=O)O)C(=O)N[C@@H](CO)C(=O)N[C@@H](CO)C(=O)N[C@@H](CC(C)C)C(=O)O)C(C)C)[C@@H](C)O)C(C)C)[C@@H](C)O)C(C)C)C(C)C)[C@@H](C)O)C(C)C` [ActRIIA] (Biotin-IVTVVTMVTNVDFPPKESSL-OH; C-terminus assumed), the Classification in assay [1] was 3 (A450 nm 2-3); in assay [2], 2 (A450 nm 1-2). Also, the Kd in assay [3] and in assay [4] was 5 µM throughout.
On to AKT-1 (Biotin-VDSERRPHFPQFSYSASSTA), for which the Classification in assay [5] is listed as 4 (A450 nm 3-4); in assay [6] (PDZ KIAA0807(S), PDZ Domain 1) it was 1 (A450 nm 0-1); in assay [6] (PDZ KIAA807, PDZ Domain not given), 1 (A450 nm 0-1). Moreover, in assay [7], the Kd came to 2.5 µM.
